Results reported in patent US20230017045A1, “PYRIDINE AND PYRIMIDINE CARBOXYLATE HERBICIDES AND METHODS OF USE THEREOF” (Dow AgroSciences LLC, priority 2017, published 2023).
Where two headings read alike, the source gives them in different places.

Test system: test plant species
Assay: Post-emergent herbicidal activity test (greenhouse, foliar spray, visual growth reduction)
Assay type: in vivo
Details: post-emergence, 336 h, 140 g ai/ha
Protocol: Post-emergent Test: Seeds or nutlets of the desired test plant species were planted in Sun Gro Metro-Mix® 360 planting mixture, which typically has a pH of 6.0 to 6.8 and an organic matter content of about 30 percent, in plastic pots with a surface area of 64 square centimeters. In some aspects, to ensure good germination and healthy plants, a fungicide treatment and/or other chemical or physical treatment was applied. The plants were grown for 7-21 d in a greenhouse with an approximate 15 h photoperiod which was maintained at 23-29° C. during the day and 22-28° C. during the night. Nutrients and water were added on a regular basis and supplemental lighting was provided with overhead metal halide 1000-Watt lamps as necessary. Plants were used for testing when they reached the first or second true leaf stage. A weighed amount, determined by the highest rate to be tested, of each test compound was placed in a 25 mL glass vial and was dissolved in 4 mL of a 97:3 v/v mixture of acetone and DMSO to obtain concentrated stock solutions. […] The concentrated stock solutions obtained were diluted with 20 mL of an aqueous mixture containing acetone, water, isopropyl alcohol, DMSO, […] crop oil concentrate, and X-77 surfactant in a 48.5:39:10:1.5:1.0:0.02 v/v ratio to obtain spray solutions containing the application rate. Compound requirements are based upon a 12 mL application volume at a rate of 187 liters per hectare (L/ha). Formulated compounds were applied to the plant material with an overhead Mandel track sprayer equipped with […] nozzles calibrated to deliver 187 L/ha over an application area of 0.64 square meters at a spray height of 18 inches (43 cm) above the average plant canopy height. Control plants were sprayed in the same manner with the solvent blank. The treated plants and control plants were placed in a greenhouse as described above and watered by subirrigation to prevent wash-off of the test compounds. After 14 d, the condition of the test plants as compared with that of the nontreated and control plants was determined visually and scored on a scale of 0 to 100 percent where 0 corresponds to no injury and 100 corresponds to complete control. In the reporting of the results, Table A: Percent Growth Reduction Conversion Table was used.

[1] = ALOMY: blackgrass (Alopecurus myosuroides), 14 days after application, read-out: Visual Growth Reduction (%) 14 Days After Application, ALOMY
[2] = AMARE: redroot pigweed (Amaranthus retroflexus), 14 days after application, read-out: Visual Growth Reduction (%) 14 Days After Application, AMARE
[3] = AVEFA: wild oat (Avena fatua), 14 days after application, read-out: Visual Growth Reduction (%) 14 Days After Application, AVEFA
[4] = CHEAL: lambsquarters (Chenopodium album), 14 days after application, read-out: Visual Growth Reduction (%) 14 Days After Application, CHEAL
[5] = CIRAR: canada thistle (Cirsium arvense), 14 days after application, read-out: Visual Growth Reduction (%) 14 Days After Application, CIRAR
[6] = CYPES: yellow nutsedge (Cyperus esculentus), 14 days after application, read-out: Visual Growth Reduction (%) 14 Days After Application, CYPES
[7] = DIGSA: crabgrass (Digitaria sanguinalis), 14 days after application, read-out: Visual Growth Reduction (%) 14 Days After Application, DIGSA
[8] = barnyardgrass (Echinochloa crus-galli), 14 Days After Application, read-out: Visual Growth Reduction (%) ECHCG
[9] = common chickweed (Stellaria media), 14 Days After Application, read-out: Visual Growth Reduction (%) STEME
[10] = giant foxtail (Setaria faberi), 14 Days After Application, read-out: Visual Growth Reduction (%) SETFA
[11] = ivy-leaf morning glory (Ipomoea hederacea), 14 Days After Application, read-out: Visual Growth Reduction (%) IPOHE
[12] = johnsongrass (Sorghum vulgare), 14 Days After Application, read-out: Visual Growth Reduction (%) SORVU
[13] = kochia (Bassia scoparia), 14 Days After Application, read-out: Visual Growth Reduction (%) KCHSC
[14] = rice (Oryza sativa), 14 Days After Application, read-out: Visual Growth Reduction (%) ORYSA
[15] = wheat, spring (Triticum aestivum), 14 Days After Application, read-out: Visual Growth Reduction (%) TRZAS

SMILES	pest or weed control at 140 g/ha [1] [%]	pest or weed control at 140 g/ha [2] [%]	pest or weed control at 140 g/ha [3] [%]	pest or weed control at 140 g/ha [4] [%]	pest or weed control at 140 g/ha [5] [%]	pest or weed control at 140 g/ha [6] [%]	pest or weed control at 140 g/ha [7] [%]	pest or weed control at 140 g/ha [8] [%]	pest or weed control at 140 g/ha [9] [%]	pest or weed control at 140 g/ha [10] [%]	pest or weed control at 140 g/ha [11] [%]	pest or weed control at 140 g/ha [12] [%]	pest or weed control at 140 g/ha [13] [%]	pest or weed control at 140 g/ha [14] [%]	pest or weed control at 140 g/ha [15] [%]
COC(=O)c1nc(-c2ccc(C(C)O)cc2Cl)ccc1Cl (centres unmarked) [F1, methyl 3-chloro-6-(2-chloro-4-(1-hydroxyethyl)phenyl)picolinate]	0 to 29	0 to 29	0 to 29	0 to 29	0 to 29	45 to 59	0 to 29	0 to 29	0 to 29	0 to 29	0 to 29	0 to 29	0 to 29	0 to 29	0 to 29
COC(=O)c1nc(-c2ccc(C(F)(F)F)cc2Cl)ccc1OC [F2, Methyl 6-(2-chloro-4-4-(trifluoromethyl)phenyl)-3-methoxypicolinate]	0 to 29	60 to 74	0 to 29	0 to 29	0 to 29	0 to 29	85 to 94	60 to 74	0 to 29	30 to 44	85 to 94	95 to 100	0 to 29	0 to 29	45 to 59
COC(=O)c1nc(-c2ccc(C(F)(F)F)cc2Cl)c(C#N)cc1Cl [F3, Methyl 3-chloro-6-(2-chloro-4-(trifluoromethyl)phenyl)-5-cyanopicolinate]	0 to 29	0 to 29	0 to 29	75 to 84	0 to 29	0 to 29	60 to 74	0 to 29	0 to 29	0 to 29	60 to 74	0 to 29	0 to 29	0 to 29	0 to 29
C#Cc1cc(Cl)c(C(=O)OC)nc1-c1ccc(C(F)(F)F)cc1Cl [F4, Methyl 3-chloro-6-(2-chloro-4-(trifluoromethyl)phenyl)-5-ethynylpicolinate]	0 to 29	0 to 29	0 to 29	85 to 94	75 to 84	0 to 29	0 to 29	0 to 29	0 to 29	0 to 29	60 to 74	30 to 44	0 to 29	0 to 29	0 to 29
COC(=O)c1nc(-c2ccc(C(F)(F)F)cc2Cl)c(C)cc1Cl [F5]	0 to 29	0 to 29	0 to 29	45 to 59	0 to 29	30 to 44	0 to 29	0 to 29		0 to 29	30 to 44	30 to 44	30 to 44	0 to 29	0 to 29
COC(=O)c1nc(-c2ccc(C(F)(F)F)cc2Cl)c(I)cc1Cl [F6, Methyl 3-chloro-6-(2-chloro-4-(trifluoromethyl)phenyl)-5-iodopicolinate]	0 to 29	0 to 29	0 to 29	0 to 29	60 to 74	0 to 29	0 to 29	0 to 29	0 to 29	0 to 29	45 to 59	45 to 59	45 to 59	0 to 29	0 to 29
COC(=O)c1nc(-c2ccc(C(F)(F)F)cc2Cl)c(SC)cc1Cl [F7, methyl 3-chloro-6-(2-chloro-4-(trifluoromethyl)phenyl)-5-(methylthio)picolinate]	0 to 29	0 to 29	0 to 29	0 to 29	0 to 29	0 to 29	0 to 29	0 to 29	0 to 29	0 to 29	0 to 29	0 to 29	0 to 29	0 to 29	0 to 29
COC(=O)c1nc(-c2ccc(C(F)(F)F)nc2Cl)ccc1Cl [F8, Methyl 2′,5-dichloro-6′-(trifluoromethyl)-[2,3′-bipyridine]-6-carboxylate]	0 to 29	95 to 100	0 to 29	95 to 100	85 to 94	45 to 59	60 to 74	30 to 44	0 to 29	0 to 29	95 to 100	85 to 94	85 to 94	0 to 29	30 to 44
COC(=O)c1nc(-c2ccc(C(F)(F)F)cc2Cl)ccc1C(F)(F)F [F9, Methyl 6-(2-chloro-4-(trifluoromethyl)phenyl)-3-(trifluoromethyl) picolinate]	0 to 29	30 to 44	0 to 29	0 to 29	0 to 29	0 to 29	0 to 29	0 to 29	0 to 29	0 to 29	45 to 59	0 to 29	0 to 29	0 to 29	0 to 29
COC(=O)c1nc(-c2ccc(C(F)(F)F)cc2Cl)ccc1C#N [F10, Methyl 6-(2-chloro-4-(trifluoromethyl)phenyl)-3-cyanopicolinate]	0 to 29	30 to 44	0 to 29	45 to 59	30 to 44	45 to 59	45 to 59	0 to 29	0 to 29	0 to 29	60 to 74	30 to 44	0 to 29	0 to 29	0 to 29
